Patent publication US7537912B2, “Methods of measuring luminogenic activity with a protected coelenterazine” (Promega Corporation, priority 2001, dated 2009)

Legend:
[1] = test system: CHO cells transfected with pHRL CMV (Renilla luciferase); experiment: Live cell assay, signal to background ratio; format: cell-based, Chinese hamster; details: for Change of luminescence from cell samples after Tergitol NP-9 was added: TERGITOL NP-9 final concentration 1%
Excerpt: In these examples, the behavior of luminophores and protected luminophores were examined in situ in a variety of cultured cells. Cells were transiently or stably transfected with a plasmid encoding Renilla luciferase. Luminescence was compared between cells contacted with a coelenterazine (VI or VII) or a protected luminophore (IX, XV, or XVI).
Chinese hamster ovary (CHO) cells were maintained in Ham's F-12 media supplemented with 10% fetal bovine serum (FBS). HeLa and 293 cells were maintained in DMEM media supplemented with 10% fetal calf serum (FCS). All cell lines were grown at 37° C. in the presence of 5% CO2. Cells were transiently transfected with either 15 μg pUC19 or pRL-Control plasmid (PROMEGA CORPORATION, E6271 ) at a concentration of 7.5×10^5 cells per 10 cm plate using Tfx-20 (PROMEGA CORP., E2391) or TransFast™ Transfection Reagent (PROMEGA CORP., E2431). The following day, transfections were pooled and split into 48 wells of a white DYNEX 96-well luminometer plate.
The cells thus prepared were then subjected to a variety of assays. Reaction buffers for these assays were prepared using either DMEM or F12 media with FBS or FCS (10% by volume). Coelenterazine VI, coelenterazine VII or one of protected luminophores IX, XV, or XVI was then added to yield a concentration of 60 μM. These buffers were then used for luminescence measurements in the following assays. Luminescence was measured using an ORION luminometer.
Media was aspirated from the cells after 24 or 48 hours following transfection. The cells were washed with 100 μl per well of 1× phosphate buffered saline. Reaction buffer containing either VI or IX was titrated into complete media by half-logs, and these solutions were added to empty wells and to wells containing transfected cells. Luminescence was measured 5 minutes after media replacement. Immediately following the initial measurement, TERGITOL NP-9 (SIGMA CHEMICALS) was added to a final concentration of 1%. Samples were mixed for approximately 15 seconds, and luminescence was integrated over 1 second per well. The luminescence measured from cell samples increased after Tergitol NP-9 was added to samples containing coelenterazine VI or VII.
Autoluminescence was taken as the luminescence measured for samples containing medium and serum alone. The luminescence divided by the autoluminescence was taken as the signal to background ratio (S/B).

[2] = test system: CHO hRL25 cells (which express luciferase); experiment: Localization of luminescence, cells expressing luciferase; format: cell-based, Chinese hamster; details: 100 μM substrate; for RL (RLU): after addition of purified Renilla luciferase; for Subs (RLU): before exogenous luciferase
Procedure: (§1) CHO hRL25 cells (which express luciferase) (4.5 mL of (7.5×10^5 cells)/(plate/5×10^9 cells/mL) were resuspended in 5.5 mL media and put into 96 well plates. The next day, the cells were aspirated, washed with 100 μL PBS, and then aspirated again. 100 μL of media (F12) containing no substrate (background) was then added to wells containing no cells. These wells were then read for 1 sec/well with an ORION Luminometer (BERTHHOLD) (Table E; Bkg).
(§2) Similarly, 100 μL portions of media containing 100 μM of either POM-h or coelenterazine-h were placed in wells containing cells or wells alone. These wells were then read for 1 sec/well with an ORION Luminometer (BERTHHOLD) immediately following (coelenterazine) and 10 minutes post-addition (POM-h) (Table E; Subs).
(§3) Thereafter, 0.5 μL of purified Renilla luciferase (3.96×10^−5 M/Reaction (Chemicon) was added to each well. All wells were then read for 1 second/well (Table E; RL).
(§4) Similarly, 100 μL portions of media (F12) containing 100 μM of either coelenterazine or triacetyl coelenterazine were placed in wells containing cells or wells alone. These wells were then read for 1 sec/well with an ORION Luminometer (BERTHHOLD) immediately following (coelenterazine) and 4 minutes post-addition (triacetyl coelenterazine) (Table F; Subs).
(§5) Thereafter, 0.5 μL of purified Renilla luciferase (3.96×10^−5 M/Reaction (Chemicon) was added to each well. All wells were then read for 1 second/well (Table F; RL).

[3] = test system: Untransfected CHO (which do not naturally produce luciferase); experiment: Localization of luminescence, untransfected cells; format: cell-based, Chinese hamster; details: Table F, 100 μM substrate; for RL (RLU): after addition of purified Renilla luciferase; for Subs (RLU): before exogenous luciferase
Procedure: as §4, §5

[4] = target: T1, Renilla luciferase (Renilla reniformis, UniProt P27652); experiment: Localization of luminescence, media only wells with and without purified Renilla luciferase; format: biochemical; details: Table E, no cells, 100 μM substrate
T1 construct: purchased Chemicon Corp
T1 sequence (P27652 1-311): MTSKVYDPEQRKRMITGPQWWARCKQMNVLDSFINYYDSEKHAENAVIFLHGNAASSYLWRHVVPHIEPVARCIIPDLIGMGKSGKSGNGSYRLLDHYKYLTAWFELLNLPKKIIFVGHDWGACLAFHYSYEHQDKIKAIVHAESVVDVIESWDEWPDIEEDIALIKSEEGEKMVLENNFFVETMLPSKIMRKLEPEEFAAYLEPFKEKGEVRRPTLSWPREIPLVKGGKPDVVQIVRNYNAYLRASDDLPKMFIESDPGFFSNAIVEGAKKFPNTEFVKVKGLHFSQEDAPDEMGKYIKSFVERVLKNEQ
Procedure: as §1, §2, §3

[5] = Table F, hRL2 cells, read immediately (coelenterazine) or 4 minutes post-addition (triacetyl coelenterazine)

Compound	Change of luminescence from cell samples after Tergitol NP-9 was added [1]	Ratios - compound/reference Luminesc. ([1]; reference compound VI, CHO cells transfected with pHRL CMV, 5 minutes after media replacement)	Ratios - compound/reference S/N ([1]; reference compound VI, luminescence divided by autoluminescence)	Ratios - compound/reference Autolum. ([1]; reference compound VI, medium and serum alone)	RL (RLU) ([2]; Table F, hRL2 cells)	Subs (RLU) [2, 5] [RLU]	RL (RLU) [3] [RLU]	Subs (RLU) [3] [RLU]	RL (RLU) ([2]; Table E, hRL25 cells)	Subs (RLU) ([2]; Table E, hRL25 cells, read immediately (coelenterazine-h) or 10 minutes post-addition (POM-h))	RL (RLU) ([4]; after addition of purified Renilla luciferase)	Subs (RLU) ([4]; before luciferase)
CC(=O)Oc1ccc(Cc2nc3c(Cc4ccccc4)nc(-c4ccc(OC(C)=O)cc4)cn3c2OC(C)=O)cc1 [compound IX, triacetyl-coelenterazine]	dropped almost to the level of autoluminescence	1.5	9.1	0.2	229111	224353	8910	864				
O=c1c(Cc2ccccc2)nc2c(Cc3ccccc3)[nH]c(-c3ccc(O)cc3)cn1-2 [compound VII, coelenterazine-h, reference compound]	increased								331381	39342	278467	763
coelenterazine [compound VI, reference compound]	increased				110008374	139842	11930147	6253				
